Source: patent US6914045B2, “Glycopeptide antibiotics” (Wyeth Holdings Corporation, priority 2001, dated 2005)
Values after ≈ are worked out from the molar mass of the structure shown.

Experiments:
Assay in all cases: in vitro antibacterial evaluation, MIC by broth dilution
Format in all cases: cell-based
Enterococcus sp. = details: broth dilution, 18 hours at 35° C.; for MIC Enterococcus faecalis (ATCC 29212): strain ATCC 29212; for MIC Enterococcus faecalis (GC 2242): strain GC 2242; for MIC Enterococcus faecium (GC 2243): strain GC 2243; for MIC Enterococcus faecalis (GC 2691): strain GC 2691; for MIC Enterococcus faecalis (GC 3059): strain GC 3059; for MIC Enterococcus faecalis (GC 4552): strain GC 4552; for MIC Enterococcus faecalis (GC 4553): strain GC 4553; for MIC Enterococcus faecalis (GC 4554): strain GC 4554; for MIC Enterococcus faecium (GC 4556): strain GC 4556; for MIC Enterococcus faecium (GC 4557): strain GC 4557; for MIC Enterococcus avium (GC 4558): strain GC 4558; for MIC Enterococcus faecalis (GC 6189): strain GC 6189
Protocol: (§1) Methods for in vitro Antibacterial Evaluation (Table 1)
(§2) The minimum inhibitory concentration (MIC), the lowest concentration of the antibiotic which inhibits growth of the test organism, is determined by the broth dilution method using Muller-Hinton II […] (Baltimore Biological Laboratories) following the recommendations of the National Committee for Clinical Laboratory Standards [Methods for dilution antimicrobial susceptibility tests for bacteria that grow aerobically, approved standard M7-A2, National Committee for Clinical Laboratory Standards, Villanova, Pa.].
(§3) An inoculum level of 5×10^5 CFU/mL, and a range of antibiotic concentrations (64-0.06 μg/mL) is used. […] The test organisms include a spectrum of Gram-positive bacteria comprised of Staphylococcus sp., Streptococcus sp. and Enterococcus sp. These organisms include recent clinical isolates that are resistant to methicillin, penicillin and/or vancomycin.

Staphylococcus sp. = details: broth dilution, 18 hours at 35° C.; for MIC Staphylococcus aureus (ATCC 29213): strain ATCC 29213; for MIC Staphylococcus aureus (GC 1131): strain GC 1131; for MIC Staphylococcus aureus (GC 3051): strain GC 3051; for MIC Staphylococcus aureus (GC 3053): strain GC 3053; for MIC Staphylococcus aureus (GC 4541): strain GC 4541; for MIC Staphylococcus aureus (GC 4542): strain GC 4542; for MIC Staphylococcus aureus-SMITH (GC 4543): strain GC 4543; for MIC Staphylococcus aureus (GC 4544): strain GC 4544; for MIC Staphylococcus aureus (GC 4545): strain GC 4545; for MIC Staphylococcus haemolyticus (GC 4546): strain GC 4546; for MIC Coagulase Negative Staphylococcus (GC 4547): strain GC 4547; for MIC Coagulase Negative Staphylococcus (GC 4548): strain GC 4548; for MIC Coagulase Negative Staphylococcus (GC 4549): strain GC 4549; for MIC Coagulase Negative Staphylococcus (GC 4551): strain GC 4551; for MIC Coagulase Negative Staphylococcus (GC 6257): strain GC 6257
Protocol: as §1, §2, §3

Streptococcus sp. = details: broth dilution, 18 hours at 35° C.; for MIC Streptococcus pneumoniae (ATCC 6301): strain ATCC 6301; for MIC Streptococcus pneumoniae (GC 1894): strain GC 1894; for MIC Streptococcus pyogenes (GC 4563): strain GC 4563; for MIC Streptococcus agalactiae (GC 4564): strain GC 4564; for MIC Streptococcus pneumoniae (GC 4565): strain GC 4565
Protocol: as §1, §2, §3

Escherichia coli = details: broth dilution, 18 hours at 35° C.; for MIC Escherichia coli (ATCC 25922): strain ATCC 25922; for MIC Escherichia coli (GC 4559): strain GC 4559; for MIC Escherichia coli (GC 4560): strain GC 4560
Method in brief: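 Broth dilution in Muller-Hinton II medium per NCCLS standard M7-A2, with an inoculum of 5×10^5 CFU/mL and antibiotic tested over 64-0.06 μg/mL. MIC was taken as the lowest concentration inhibiting visible growth.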

Compound	MIC Enterococcus faecalis (ATCC 29212) (Enterococcus sp.) [µg/mL]	MIC Enterococcus faecalis (GC 2242) (Enterococcus sp.) [µg/mL]	MIC Enterococcus faecium (GC 2243) (Enterococcus sp.) [µg/mL]	MIC Enterococcus faecalis (GC 2691) (Enterococcus sp.) [µg/mL]	MIC Enterococcus faecalis (GC 3059) (Enterococcus sp.) [µg/mL]	MIC Enterococcus faecalis (GC 4552) (Enterococcus sp.) [µg/mL]	MIC Enterococcus faecalis (GC 4553) (Enterococcus sp.) [µg/mL]	MIC Enterococcus faecalis (GC 4554) (Enterococcus sp.) [µg/mL]	MIC Enterococcus faecium (GC 4556) (Enterococcus sp.) [µg/mL]	MIC Enterococcus faecium (GC 4557) (Enterococcus sp.) [µg/mL]	MIC Enterococcus avium (GC 4558) (Enterococcus sp.) [µg/mL]	MIC Enterococcus faecalis (GC 6189) (Enterococcus sp.) [µg/mL]	MIC Staphylococcus aureus (ATCC 29213) (Staphylococcus sp.) [µg/mL]	MIC Staphylococcus aureus (GC 1131) (Staphylococcus sp.) [µg/mL]	MIC Staphylococcus aureus (GC 3051) (Staphylococcus sp.) [µg/mL]	MIC Staphylococcus aureus (GC 3053) (Staphylococcus sp.) [µg/mL]	MIC Staphylococcus aureus (GC 4541) (Staphylococcus sp.) [µg/mL]	MIC Staphylococcus aureus (GC 4542) (Staphylococcus sp.) [µg/mL]	MIC Staphylococcus aureus-SMITH (GC 4543) (Staphylococcus sp.) [µg/mL]	MIC Staphylococcus aureus (GC 4544) (Staphylococcus sp.) [µg/mL]	further results
CC(c1ccccc1)C1NC(=O)CNC(=O)C(CO)NC(=O)C(C(O)C2CNC(=N)N2C2OC(CO)C(O)C(O)C2O)NC(=O)C(C(O)C2CNC(=N)N2)NC(=O)C(Cc2ccc(O)c(NC(=S)Nc3cc(C(F)(F)F)cc(C(F)(F)F)c3)c2)NC1=O (stereo not drawn) [Example 24, Cyclo[glycyl-β-methylphenylalanyl-3-[[[3,5-bis(trifluoromethyl)phenyl]carbamothioyl]amino]-tyrosyl-3-(2-iminoimidazolidin-4-yl)seryl-3-(3-hexopyranosyl-2-iminoimidazolidin-4-y)-serylseryl]]	64 (≈ 50.9 µM)	64 (≈ 50.9 µM)	64 (≈ 50.9 µM)	>64	>64	>64	32 (≈ 25.5 µM)	>64	64 (≈ 50.9 µM)	32 (≈ 25.5 µM)	64 (≈ 50.9 µM)	>64	>64	>64	>64	>64	>64	>64	>64	>64	MIC Staphylococcus aureus (GC 4545) (Staphylococcus sp.): >64 µg/mL; MIC Staphylococcus haemolyticus (GC 4546) (Staphylococcus sp.): 64 µg/mL (≈ 50.9 µM); MIC Coagulase Negative Staphylococcus (GC 4547) (Staphylococcus sp.): 64 µg/mL (≈ 50.9 µM); MIC Coagulase Negative Staphylococcus (GC 4548) (Staphylococcus sp.): 64 µg/mL (≈ 50.9 µM); MIC Coagulase Negative Staphylococcus (GC 4549) (Staphylococcus sp.): >64 µg/mL; MIC Coagulase Negative Staphylococcus (GC 4551) (Staphylococcus sp.): >64 µg/mL; MIC Coagulase Negative Staphylococcus (GC 6257) (Staphylococcus sp.): 32 µg/mL (≈ 25.5 µM); MIC Streptococcus pneumoniae (ATCC 6301) (Streptococcus sp.): >64 µg/mL; MIC Streptococcus pneumoniae (GC 1894) (Streptococcus sp.): 64 µg/mL (≈ 50.9 µM); MIC Streptococcus pyogenes (GC 4563) (Streptococcus sp.): 64 µg/mL (≈ 50.9 µM); MIC Streptococcus agalactiae (GC 4564) (Streptococcus sp.): >64 µg/mL; MIC Streptococcus pneumoniae (GC 4565) (Streptococcus sp.): >64 µg/mL; MIC Escherichia coli (ATCC 25922) (Escherichia coli): >64 µg/mL; MIC Escherichia coli (GC 4559) (Escherichia coli): >64 µg/mL; MIC Escherichia coli (GC 4560) (Escherichia coli): 32 µg/mL (≈ 25.5 µM)
CC(c1ccccc1)C1NC(=O)CNC(=O)C(CO)NC(=O)C(C(O)C2CNC(=N)N2C2OC(CO)C(O)C(O)C2O)NC(=O)C(C(O)C2CNC(=N)N2)NC(=O)C(Cc2ccc3oc(-c4ccc(C(=O)O)cc4)nc3c2)NC1=O (stereo not drawn) [Example 25, Cyclo[3-[2-(4-carboxyphenyl)-1,3-benzoxazol-5-yl]alanyl-3-(2-iminoimidazolidin-4-yl)seryl-3-(3-hexopyranosyl-2-iminoimidazolidin-4-yl)serylserylglycyl-β-methylphenylalanyl]]	>128	>128	>128	>128	>128	>128	>128	>128	>128	128 (≈ 115 µM)	128 (≈ 115 µM)	>128	>128	>128	>128	>128	>128	>128	>128	>128	MIC Staphylococcus aureus (GC 4545) (Staphylococcus sp.): >128 µg/mL; MIC Staphylococcus haemolyticus (GC 4546) (Staphylococcus sp.): >128 µg/mL; MIC Coagulase Negative Staphylococcus (GC 4547) (Staphylococcus sp.): >128 µg/mL; MIC Coagulase Negative Staphylococcus (GC 4548) (Staphylococcus sp.): >128 µg/mL; MIC Coagulase Negative Staphylococcus (GC 4549) (Staphylococcus sp.): >128 µg/mL; MIC Coagulase Negative Staphylococcus (GC 4551) (Staphylococcus sp.): >128 µg/mL; MIC Coagulase Negative Staphylococcus (GC 6257) (Staphylococcus sp.): >128 µg/mL; MIC Streptococcus pneumoniae (ATCC 6301) (Streptococcus sp.): >128 µg/mL; MIC Streptococcus pneumoniae (GC 1894) (Streptococcus sp.): 128 µg/mL (≈ 115 µM); MIC Streptococcus pyogenes (GC 4563) (Streptococcus sp.): >128 µg/mL; MIC Streptococcus agalactiae (GC 4564) (Streptococcus sp.): >128 µg/mL; MIC Streptococcus pneumoniae (GC 4565) (Streptococcus sp.): >128 µg/mL; MIC Escherichia coli (ATCC 25922) (Escherichia coli): >128 µg/mL; MIC Escherichia coli (GC 4559) (Escherichia coli): >128 µg/mL; MIC Escherichia coli (GC 4560) (Escherichia coli): >128 µg/mL
